From patent US5672715A, “Herbicidal substituted 3-aryl-pyrazoles” (Monsanto Company, priority 1995, dated 1997)
“And” between values parts separate entries of the source, which are not always exact repeats. Equal entries are not always repeated.

How the values were obtained:
Assay type in all cases: in vivo
[1] = system: Downy Brome; experiment: post-emergence herbicide test; conditions: Bromus tectorum, post-emergence, 0.25 lb/A; read-out: % plant inhibition
Source text: (§1) Topsoil was placed in aluminum pans having holes in the bottom and compacted to a depth of 1.3 to 1.6 cm from the top of the pan. A predetermined number of seeds of each of several dicotyledonous and monocotyledonous annual plant species and/or vegetative propagules for the perennial plant species were placed on the soil and pressed into the soil surface. The seeds and/or vegetative propagules were covered with soil and leveled. The pans were then placed on a bench in the greenhouse and watered either from overheard irrigation or by subirrigation as needed. After the plants reach the desired age (two to three weeks), each pan, is removed individually to a spraying chamber and sprayed by means of an atomizer, operating at a spray pressure of 170.3 kPa […] at the application rates noted. In the spray solution was an amount of an emulsifying agent mixture to give a spray solution or suspension which contains about 0.4% by volume of the emulsifier. The spray solution or suspension contained a sufficient amount of the candidate chemical in order to give application rates of the active ingredient corresponding to those shown in Tables 4 and 5, while applying a total amount of solution or suspension equivalent to 1870 L/Ha (200 gallons/acre). […] The post-emergent herbicidal activity shown in these tables is the percent inhibition of each plant species. Testing with warm season and cool season plants is shown in tables 4a-4d and […], respectively.

[2] = system: Morning Glory; experiment: post-emergence herbicide test; conditions: Ipomoea, post-emergence, 0.25 lb/A; read-out: % plant inhibition
Source text: as §1

[3] = system: Bedstraw Catchweed; experiment: post-emergence herbicide test; conditions: 0.25 lb/A; for inhibition at 280.212 g/ha: Galium aparine, post-emergence, read-out: % plant inhibition
Source text: as §1

[4] = system: Soybean; experiment: post-emergence herbicide test; conditions: Glycine max, post-emergence, 0.25 lb/A; read-out: % plant inhibition
Source text: as §1

[5] = system: Birdseye Speedwell; experiment: post-emergence herbicide test; conditions: 0.25 lb/A; for inhibition at 280.212 g/ha: post-emergence, read-out: % plant inhibition
Source text: as §1

[6] = system: Blackgrass; experiment: post-emergence herbicide test; conditions: Alopecurus myosuroides, post-emergence, 0.25 lb/A; read-out: % plant inhibition
Source text: as §1

[7] = system: Giant Foxtail; experiment: post-emergence herbicide test; conditions: Setaria faberi, post-emergence, 0.25 lb/A; read-out: % plant inhibition
Source text: as §1

[8] = system: Cocklebur; experiment: post-emergence herbicide test; conditions: Xanthium strumarium, post-emergence, 0.25 lb/A; read-out: % plant inhibition
Source text: as §1

[9] = system: Green Foxtail; experiment: post-emergence herbicide test; conditions: Setaria viridis, post-emergence, 0.25 lb/A; read-out: % plant inhibition
Source text: as §1

[10] = system: Barnyardgrass; experiment: post-emergence herbicide test; conditions: Echinochloa crus-galli, post-emergence, 0.25 lb/A; read-out: % plant inhibition
Source text: as §1

[11] = system: Velvetleaf; experiment: post-emergence herbicide test; conditions: 0.25 lb/A; for inhibition at 280.212 g/ha: Abutilon theophrasti, post-emergence, read-out: % plant inhibition
Source text: as §1

[12] = system: Wild Oats; experiment: post-emergence herbicide test; conditions: Avena fatua, post-emergence, 0.25 lb/A; read-out: % plant inhibition
Source text: as §1

[13] = system: Corn; experiment: post-emergence herbicide test; conditions: 0.25 lb/A; for inhibition at 280.212 g/ha: Zea mays, post-emergence, read-out: % plant inhibition
Source text: as §1

[14] = system: Rape; experiment: post-emergence herbicide test; conditions: post-emergence, 0.25 lb/A; read-out: % plant inhibition
Source text: as §1

[15] = system: Wheat; experiment: post-emergence herbicide test; conditions: Triticum aestivum, post-emergence, 0.25 lb/A; read-out: % plant inhibition
Source text: as §1

[16] = system: Common Chickweed; experiment: post-emergence herbicide test; conditions: post-emergence, 0.25 lb/A; read-out: % plant inhibition
Source text: as §1

[17] = system: Seedling Johnsongrass; experiment: post-emergence herbicide test; conditions: 0.25 lb/A; for inhibition at 280.212 g/ha: Sorghum halepense, post-emergence, read-out: % plant inhibition
Source text: as §1

[18] = system: Downy Brome; experiment: pre-emergence herbicide test; conditions: 0.25 lb/A; for inhibition at 280.212 g/ha: Bromus tectorum, pre-emergence, read-out: % plant inhibition
Experimental: (§2) Topsoil was placed in an aluminum pan and compacted to a depth of 1.3 to 1.6 cm from the top of the pan. On the top of the soil was placed a predetermined number of seeds of each of several monocotyledonous and dicotyledonous annual plant species and/or vegetative propagules of various perennial plant species. The pan was then level filled with a cover layer of topsoil to which was added a known amount of active ingredient either prior to or after application of the cover layer. The active ingredient was dissolved or suspended in an organic solvent, e.g., acetone, or water as carrier for application to the cover layer. The pans were moved to a greenhouse bench where they were thereafter watered from below as needed to give adequate moisture for germination and growth. In some cases, an initial overhead irrigation of 1/4 inch of water was applied immediately after treatment.
(§3) Approximately 14 days after seeding and treating, the pans were observed and the results (% inhibition) were recorded.
(§4) The tables below summarize the results of the pre-emergence herbicidal activity tests of compounds of this invention tested with warm season plants (Tables 2a-2d) and cool season plants (Tables 3a and 3b). The herbicidal rating shown in these tables is the percent inhibition of each plant species. The plant species usually regarded as weeds are identified in the tables by single letter headings and crop species identified by two letter headings both headings being above the columns in accordance with the following legend: […]

[19] = system: Morning Glory; experiment: pre-emergence herbicide test; conditions: 0.25 lb/A; for inhibition at 280.212 g/ha: Ipomoea, pre-emergence, read-out: % plant inhibition
Experimental: as §2, §3, §4

[20] = system: Bedstraw Catchweed; experiment: pre-emergence herbicide test; conditions: 0.25 lb/A; for inhibition at 280.212 g/ha: Galium aparine, pre-emergence, read-out: % plant inhibition
Experimental: as §2, §3, §4

[21] = system: Soybean; experiment: pre-emergence herbicide test; conditions: 0.25 lb/A
Experimental: as §2, §3, §4

[22] = system: Birdseye Speedwell; experiment: pre-emergence herbicide test; conditions: pre-emergence, 0.25 lb/A; read-out: % plant inhibition
Experimental: as §2, §3, §4

[23] = system: Blackgrass; experiment: pre-emergence herbicide test; conditions: Alopecurus myosuroides, pre-emergence, 0.25 lb/A; read-out: % plant inhibition
Experimental: as §2, §3, §4

[24] = system: Giant Foxtail; experiment: pre-emergence herbicide test; conditions: 0.25 lb/A; for inhibition at 280.212 g/ha: Setaria faberi, pre-emergence, read-out: % plant inhibition
Experimental: as §2, §3, §4

[25] = system: Green Foxtail; experiment: pre-emergence herbicide test; conditions: Setaria viridis, pre-emergence; 0.25 lb/A; read-out: % plant inhibition
Experimental: as §2, §3, §4

[26] = system: Barnyardgrass; experiment: pre-emergence herbicide test; conditions: Echinochloa crus-galli, pre-emergence, 0.25 lb/A; read-out: % plant inhibition
Experimental: as §2, §3, §4

[27] = system: Wild Oats; experiment: pre-emergence herbicide test; conditions: 0.25 lb/A; for inhibition at 280.212 g/ha: Avena fatua, pre-emergence, read-out: % plant inhibition
Experimental: as §2, §3, §4

[28] = system: Corn; experiment: pre-emergence herbicide test; conditions: 0.25 lb/A; for inhibition at 280.212 g/ha: Zea mays, pre-emergence, read-out: % plant inhibition
Experimental: as §2, §3, §4

[29] = system: Rape; experiment: pre-emergence herbicide test; conditions: 0.25 lb/A; for inhibition at 280.212 g/ha: pre-emergence, read-out: % plant inhibition
Experimental: as §2, §3, §4

[30] = system: Wheat; experiment: pre-emergence herbicide test; conditions: 0.25 lb/A; for inhibition at 280.212 g/ha: Triticum aestivum, pre-emergence, read-out: % plant inhibition
Experimental: as §2, §3, §4

[31] = system: Common Chickweed; experiment: pre-emergence herbicide test; conditions: pre-emergence, 0.25 lb/A; read-out: % plant inhibition
Experimental: as §2, §3, §4

[32] = system: Cocklebur; experiment: pre-emergence herbicide test; conditions: 0.25 lb/A
Experimental: as §2, §3, §4

[33] = system: Velvetleaf; experiment: pre-emergence herbicide test; conditions: 0.25 lb/A; for inhibition at 280.212 g/ha: Abutilon theophrasti, pre-emergence, read-out: % plant inhibition
Experimental: as §2, §3, §4

[34] = system: Seedling Johnsongrass; experiment: pre-emergence herbicide test; conditions: Sorghum halepense, pre-emergence, 0.25 lb/A; read-out: % plant inhibition
Experimental: as §2, §3, §4

Cc1c(-c2cc(C(=O)O)c(Cl)cc2F)nn(C)c1C(F)(F)F [Compound 2, 2-Chloro-5-[1,4-dimethyl-5-(trifluoromethyl)-1H-pyrazol-3-yl]-4-fluorobenzoic acid]
inhibition at 280.212 g/ha [1]: 0% | inhibition at 280.212 g/ha [2]: 45% | inhibition at 280.212 g/ha [3]: 50% | inhibition at 280.212 g/ha [4]: 20% | inhibition at 280.212 g/ha [5]: 80% | inhibition at 280.212 g/ha [6]: 10% | inhibition at 280.212 g/ha [7]: 0% | inhibition at 280.212 g/ha [8]: 70% | inhibition at 280.212 g/ha [9]: 15% | inhibition at 280.212 g/ha [10]: 15% | inhibition at 280.212 g/ha [11]: 85% | inhibition at 280.212 g/ha [12]: 0% | inhibition at 280.212 g/ha [13]: 3% | inhibition at 280.212 g/ha [14]: 0% | inhibition at 280.212 g/ha [15]: 0% | inhibition at 280.212 g/ha [16]: 70% | inhibition at 280.212 g/ha [17]: 20% | inhibition at 280.212 g/ha [18]: 25% | % plant inhibition [19]: 30% | inhibition at 280.212 g/ha [19]: 35% | inhibition at 280.212 g/ha [20]: 50% | % plant inhibition [21]: 5% and 0% | inhibition at 280.212 g/ha [22]: 55% | inhibition at 280.212 g/ha [23]: 15% | inhibition at 280.212 g/ha [24]: 0% | inhibition at 280.212 g/ha [25]: 25% | inhibition at 280.212 g/ha [26]: 0% | inhibition at 280.212 g/ha [27]: 15% | inhibition at 280.212 g/ha [28]: 0% | inhibition at 280.212 g/ha [29]: 20% | inhibition at 280.212 g/ha [30]: 7% | inhibition at 280.212 g/ha [31]: 60%

Cc1c(-c2cc(C(=O)OC(C)C)c(Cl)cc2F)nn(C)c1C(F)(F)F [Compound 8, 2-Chloro-5-[1,4-dimethyl-5-(trifluoromethyl)-1H-pyrazol-3-yl]-4-fluorobenzoic acid, 1-methylethyl ester]
% plant inhibition [3]: 60% and 95% | % plant inhibition [5]: 55% | % plant inhibition [11]: 99% | inhibition at 280.212 g/ha [11]: 90% | % plant inhibition [13]: 20% | inhibition at 280.212 g/ha [13]: 15% | % plant inhibition [17]: 90% | inhibition at 280.212 g/ha [17]: 70% | % plant inhibition [18]: 99% | inhibition at 280.212 g/ha [18]: 100% | % plant inhibition [19]: 100% | % plant inhibition [20]: 100% | inhibition at 280.212 g/ha [20]: 90% | inhibition at 280.212 g/ha [22]: 100% | inhibition at 280.212 g/ha [23]: 100% | inhibition at 280.212 g/ha [24]: 100% | % plant inhibition [32]: 80% and 75% and 99% and 85% | inhibition at 280.212 g/ha [25]: 100% | inhibition at 280.212 g/ha [26]: 100% | % plant inhibition [33]: 100% | inhibition at 280.212 g/ha [33]: 98% | % plant inhibition [27]: 100% | inhibition at 280.212 g/ha [27]: 95% | % plant inhibition [28]: 85% and 90% and 70% and 100% | % plant inhibition [29]: 100% and 90% | inhibition at 280.212 g/ha [29]: 98% | % plant inhibition [30]: 0% | inhibition at 280.212 g/ha [31]: 100% | inhibition at 280.212 g/ha [34]: 100%

CCOC(=O)C(C)OC(=O)c1cc(-c2nn(C)c(C(F)(F)F)c2C)c(F)cc1Cl (stereo not drawn) [Compound 20]
inhibition at 280.212 g/ha [1]: 40% | inhibition at 280.212 g/ha [2]: 98% | inhibition at 280.212 g/ha [3]: 95% | inhibition at 280.212 g/ha [4]: 35% | inhibition at 280.212 g/ha [5]: 100% | inhibition at 280.212 g/ha [6]: 35% | inhibition at 280.212 g/ha [7]: 75% | inhibition at 280.212 g/ha [8]: 90% | inhibition at 280.212 g/ha [9]: 25% | inhibition at 280.212 g/ha [10]: 85% | inhibition at 280.212 g/ha [11]: 100% | inhibition at 280.212 g/ha [12]: 45% | inhibition at 280.212 g/ha [13]: 8% | inhibition at 280.212 g/ha [14]: 25% | inhibition at 280.212 g/ha [15]: 22% | inhibition at 280.212 g/ha [16]: 98% | inhibition at 280.212 g/ha [17]: 80% | inhibition at 280.212 g/ha [18]: 65% | % plant inhibition [19]: 70% | inhibition at 280.212 g/ha [19]: 85% | inhibition at 280.212 g/ha [20]: 100% | inhibition at 280.212 g/ha ([21]; Glycine max, pre-emergence, read-out: % plant inhibition): 5% | inhibition at 280.212 g/ha [22]: 100% | inhibition at 280.212 g/ha [23]: 70% | % plant inhibition [24]: 80% | inhibition at 280.212 g/ha [24]: 98% | inhibition at 280.212 g/ha ([32]; Xanthium strumarium, pre-emergence, read-out: % plant inhibition): 55% | inhibition at 280.212 g/ha [25]: 100% | inhibition at 280.212 g/ha [33]: 95% | inhibition at 280.212 g/ha [27]: 25% | % plant inhibition [28]: 10% | inhibition at 280.212 g/ha [28]: 15% | inhibition at 280.212 g/ha [29]: 95% | inhibition at 280.212 g/ha [30]: 0% | inhibition at 280.212 g/ha [31]: 100%
